These results are taken from PubChem BioAssay AID179 (DTP/NCI, 2004).

pEC50, pIC50: −log10 of the molar value. Several values for one entry are separate records, joined by “and”; a condition that tells them apart may be missing. Equal values may be shown once. Activity calls are given as the source filed them.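 The calls were made as follows: active = compounds giving half or more protection of infected cells from virus-caused growth loss, again on retest; inactive = the rest.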 Where a SMILES comes first, the peptide text is derived from it. The star is where a group is joined. Boc = CC(C)(C)OC(=O)*

In the assay the test system is CEM cells HIV-1 protection, formazan growth assay. The experiment in a line: NCI AIDS Antiviral Assay. The settings on record: for pIC50: measured here: growth of uninfected CEM cells. The method, boiled down: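 Five concentrations of each compound were applied to infected and uninfected human CEM cells. Protection from HIV-1 was judged from growth measured with a soluble formazan assay.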

Take `CN1C(=O)C(C)(C)NS1(=O)=O`: the outcome was inactive.

What is called pEC50 is the negative decadic logarithm of the EC50, by convention in mol/L. For orientation: pIC50 means −log10 of the IC50, conventionally taken in molar units. Read a low pIC50 as a high IC50. In the case of `CCCCCC=C(c1cc(Cl)c(OC)c(C(=O)NC)c1)c1cc(Cl)c(OC)c(C(=O)NC)c1`, the pEC50 is below 4.42 and the pIC50 is 4.69.

Turning to `Clc1ccc(NC(Nc2ccc(Cl)cc2)C(Cl)(Cl)Cl)cc1`, the result was inactive. `CC1(C)OC2CC3COC(=O)C3CC2O1` (stereo not given): the pEC50 was below 2.93 and the pIC50 was below 2.93. Consider `COc1ccc(-c2cnoc2-c2ccc(OC)c(OC)c2)cc1OC`, for which the pEC50 was below 4.26 and the pIC50 is 6.45. In the case of `C=CCn1c(-c2ccccc2)nn(CC(=O)Nn2c(C)nc3ccccc3c2=O)c1=S`, the outcome was inactive. In the case of `CCCCOC(=O)C1CN2C(=NC1(C(F)(F)F)C(F)(F)F)Sc1ccccc12` (stereo not given), the outcome was inactive. On to `CCC[CH2][Sn]([CH2]CCC)=[N]S(=O)(=O)c1ccc(Cl)c(C)c1`, for which the pEC50 was below 6.70 and the pIC50 was 7.07. In the same order, the values of `O=C(CCN(CCO)CCO)Nc1ccc2c(c1)C(=O)c1ccc(NC(=O)CCN(CCO)CCO)cc1C2=O` are below 3.70 and 5.78. As to `CNCC(=O)NC(CO)C(=O)NC1C(C(N)=O)OC(n2ccc(N)nc2=O)C(O)C1O` (stereo not given), the outcome was inactive. On to `COC(=O)C(Cc1c[nH]c2ccccc12)NC(=O)C(Cc1c[nH]c2ccccc12)NC(=O)C(Cc1c[nH]c2ccccc12)NC(=O)C(Cc1c[nH]c2ccccc12)NC(=O)OC(C)(C)C` (stereo not given) (Boc-WWWW-OMe; configuration not given here), for which the pEC50 was below 4.00 and the pIC50 was 4.86.

With `O=C1/C(=C/c2ccc(Cl)cc2)Oc2cc(O)ccc21`, the pEC50 was below 3.70 and the pIC50 was 4.43. In the case of `COc1cc(C(=O)Oc2c(C#N)sc3c2c(=O)n(-c2ccccc2)c(=S)n3-c2ccccc2)cc(OC)c1OC`, the pEC50 was below 3.70 and the negative-log IC50 (pIC50) was 6.21.

`CCOC(=O)c1c(N2CCOCC2)[nH]c(=O)c(C(c2ccco2)c2c(O)c(C(=O)OCC)c(N3CCOCC3)[nH]c2=O)c1O`: the pEC50 is below 3.70 and the pIC50 is below 3.70. Turning to `COC1=CC(=O)c2cc(C)cc(-c3cc4ccc(=O)oc4cc3OC)c2C1=O`, the outcome was inactive.

Turning to `CC(=O)OCC1OC(n2c(C)cc(-c3ccc(Cl)cc3)c(C#N)c2=S)C(OC(C)=O)C(OC(C)=O)C1OC(C)=O` (stereo not given), the pEC50 was below 3.70 and the pIC50 was 4.52. Consider `CCOP(=O)(OCC)/C(C#N)=C/c1ccc(N(C)C)cc1`, for which the pEC50 was below 3.09 and the pIC50 was 3.36. For the molecule `O=C(CCC(NC(=O)OCc1ccccc1)C(=O)OCc1ccccc1)Nc1cccc(OCc2ccccc2)c1` (stereo not given), the pEC50 was below 3.70 and the pIC50 was 4.45.

On to `CC1OC(n2cc(C(F)(F)F)c(=O)[nH]c2=O)C=CC1=O` (stereo not given), for which the pEC50 is below 3.35 and the pIC50 is 5.47. On to `O=C1OC(c2ccccc2)c2cccnc21` (stereo not given), for which the pEC50 is below 2.93 and the pIC50 was below 2.93. For `C[n+]1c(-c2ccc(/C=N/NC(=O)C(=O)N/N=C/c3ccc(-c4cn5ccccc5[n+]4C)cc3)cc2)cn2ccccc21`, the pEC50 was 4.25 and < 3.70; the pIC50 was 4.13 and < 3.70. With `O=S1(=O)CCC2=CC(C(F)(F)F)=CC(C(F)(F)F)=CN21`, the pEC50 is below 4.09 and the pIC50 was 6.42. For `Cn1cc/c(=N\N=c2/ccn(C)c3ccccc23)c2ccccc21`, the pEC50 is below 3.94 and the pIC50 is 5.30. On to `C=CCNC(=S)N/C=C(/C#N)C(=O)OC`, for which the result was inactive. Take `O=C(CNc1ccc(Cl)cc1Cl)Nn1c(-c2ccccc2)nc2ccccc2c1=O`: the pEC50 is below 3.70 and the pIC50 is 4.98. For the molecule `COc1cc(N=Nc2cc(S(=O)(=O)O)c3cccnc3c2O)ccc1-c1ccc(N=Nc2cc(S(=O)(=O)O)c3cccnc3c2O)cc1OC`, the pEC50 was 4.00 and the negative-log IC50 (pIC50) is 3.74. For the molecule `O=C(c1ccc(Cl)cc1)c1cnc(Nc2ccccc2Cl)s1`, the pEC50 was below 4.97 and the pIC50 was below 4.97. Regarding `C=CCCCN(C(=O)c1ccccc1)c1ccc(C(=O)OC)o1`, the pEC50 is below 3.70 and the pIC50 is 4.30.

Turning to `CCOC(=O)CC(=O)Sc1ccccc1`, the pEC50 is below 3.60 and the pIC50 was 4.68. In the case of `CC(C)S1=C2C(=O)CC(C)(C)CC2=Nc2ccccc21` (stereo not given), the pEC50 was 4.21 and the pIC50 is below 3.70. The corresponding values for `C/C=C1\[C@H]2C=C(C)C[C@@]1(N)c1ccc(=O)[nH]c1[C@@H]2O` are below 3.32 and below 3.32. `COC(=O)/C=C1/N=C(N(C)/N=C/c2ccccc2)NC1=O`: the pEC50 is below 3.70 and the pIC50 was below 3.70. Consider `CCOC(=O)C1=NN(c2ccccc2)C(=O)/C1=C/N1C(=O)/C(=C/c2ccc([N+](=O)[O-])cc2)SC1=S`, for which the pEC50 is below 3.70 and the pIC50 is 4.63.

Take `COc1ccc(C2Oc3cc(OC)cc(O)c3C(=O)C2C2C(=O)c3c(O)cc(OC)cc3OC2c2ccc(O)cc2)cc1` (stereo not given): the pEC50 is below 3.70 and the pIC50 is 4.43. In the same order, the values of `COc1ccc2c(c1)[n+]([O-])c(/C(C)=N/NC(=O)CC#N)c[n+]2[O-]` are below 4.78 and below 4.78. The corresponding values for `O=C(O)COc1cccc2ccccc(=O)c12` are below 3.70 and below 3.70. On to `CC(C)=CCC[C@@H](C)C1=C(O)C(c2c(I)c(=O)n(C)c(=O)n2C)=C(C)C(=O)C1=O`, for which the pEC50 is below 3.70 and the pIC50 was 3.95. For `CCCC(C(=O)OCC)N1C(=O)c2ccccc2S1(=O)=O` (stereo not given), the pEC50 is below 3.70 and the pIC50 was 3.83.

For the molecule `CC(C)(C)[Si](C)(C)OC[C@H](CO)NC(=O)OCc1ccccc1`, the pEC50 is below 3.70 and the pIC50 is 4.41. As for `CCOC(=O)C(=CN1C/C(=C/C(C)=C/c2ccccc2)SC1=S)C(=O)OCC`, the pEC50 is below 4.00 and the pIC50 is 4.74. For `CC(=O)OC1C(OCc2cc(=O)oc3c4c(c5c(c23)OC(C)(C)CC5)O[C@@H](C)[C@H](C)[C@@H]4O)OC(CO)C(O)C1O` (stereo not given in full), the pEC50 was below 3.70 and the pIC50 was 4.36. Take `COC(=O)NC1=Nc2ccccc2-c2ccccc2N1`: the pEC50 is below 3.70 and the negative logarithm of the IC50 (pIC50) was 3.91. With `COC(=O)C1=CC2C(=O)OC1C1C(=O)NC(=O)C21` (stereo not given), the outcome was inactive. On to `Nc1nnc(Cc2ccccc2[N+](=O)[O-])c(=O)[nH]1`, for which the pEC50 is below 4.53 and the pIC50 was below 4.53.

The molecule `CC[C@@H]1OC2(C)CC(S(=O)(=O)c3ccccc3)CC1O2` (stereo not given in full) had a pEC50 of 4.58 and a pIC50 of 3.77.

For `O=c1[nH]c(=O)n(C2OC(CO)C(O)C2O)cc1OCCCc1ccccc1` (stereo not given), the pEC50 is below 3.70 and the pIC50 is below 3.70.

In the case of `N#Cc1c(N)c2c(c(-c3ccccc3)c1-c1ccccc1)C(=O)N(NC(=O)c1ccccc1)C2=O`, the pEC50 is 4.12 and the pIC50 was 3.99.

Regarding `O=C(/C=C/c1ccccc1Cl)c1ccccc1Cl`, the pEC50 is below 5.14 and the pIC50 was below 5.14.

Consider `CN1N=C(N)c2cn(C3OC(COP(=O)(O)O)C(O)C3O)c3ncnc1c23` (stereo not given), for which the negative-log EC50 (pEC50) is below 4.24 and the pIC50 was 4.67. As for `CCCCCCCCCCCCCCCC[N+](C)(C)Cc1ccc(C[N+](C)(C)CCCCCCCCCCCCCCCC)cc1`, the outcome was inactive.

Consider `CC(C)(C)C(=O)C1CC(=O)c2ccccc2C1=O` (stereo not given), for which the pEC50 is below 4.53 and the pIC50 was below 4.53. For `COc1cc(C2c3cc(OC)c(OC)c(O)c3C(=O)C3CCC(=O)N32)cc(OC)c1OC` (stereo not given), the pEC50 was below 4.00 and the pIC50 was 4.83. For the molecule `Oc1ccc2c(c1)OCC1(O)Cc3cc(O)c(O)cc3C21` (stereo not given), the result was inactive.

Regarding `O=C(CN(Cc1ccccc1)Cc1ccccc1)N1CCc2c([nH]c3ccccc23)C1c1cccnc1` (stereo not given), the pEC50 is below 5.25 and the pIC50 is below 5.25. For `COC(=O)NC1(NC(=O)OC)NC(=O)c2cc(OC)c(OC)c(OC)c2N1`, the pEC50 is below 3.70 and the pIC50 is 5.00. For `CC12CCC(CC1(Cl)Cl)C2` (stereo not given), the pEC50 was below 3.70 and the pIC50 is below 3.70. Turning to `CC1=NOC(=O)C12CC2`, the pEC50 is below 3.70 and the pIC50 is below 3.70. In the case of `N#CNC(N)=Nc1cc2ccccc2c2ccccc12`, the pEC50 is below 4.00 and the pIC50 was 5.37. On to `CCc1cc2c(c3c1CCCC3=O)CC1(Cc3ccc(C(=O)OC)cc3C1)C2` (stereo not given), for which the pEC50 is below 3.70 and the pIC50 is 4.44. Regarding `CCNC(=S)NNC(=O)c1ccccc1Nc1ccccc1C(=O)NNC(=S)NCC`, the result was inactive and the pIC50 is 3.95. Consider `O=C(CC(=O)N(C(=O)c1ccccc1)c1ccc(Cl)cc1)N/N=C\c1ccccc1O`, for which the pEC50 was below 3.70 and the pIC50 is below 3.70. For the molecule `N.N.O=C([O-])P(=O)([O-])[O-].[Na+].[Pt+4]`, the pEC50 was below 2.38 and the pIC50 is 3.81.

Take `[N-]=[N+]=Nc1nc2ccccc2c(N=[N+]=[N-])c1Cl`: the pEC50 is below 3.70 and the negative logarithm of the IC50 (pIC50) is 3.88. Consider `CC(=O)c1ccc(N=Nc2ccc3nonc3c2N)cc1`, for which the pEC50 was below 3.70 and the pIC50 was below 3.70.

`CCn1c(O)c(C=Nc2ccccc2)s/c1=N/Nc1ncc(CC(=O)Nc2ccccc2C)s1`: the pEC50 was below 3.70 and the pIC50 is 3.77. On to `C=C(Br)CNC(=O)Nc1ccc(Cl)c(Cl)c1`, for which the pEC50 was below 3.70 and the pIC50 is 4.66. Regarding `Cc1c(/C=N/NC(=S)Nc2ccccc2)c(=O)n(-c2ccccc2)n1C`, the pEC50 is below 3.70 and the pIC50 was below 3.70. Regarding `Cc1ccc(OCC2OC(n3cnc4c(Cl)ncnc43)CC2Oc2ccc(C)cc2)cc1` (stereo not given), the pEC50 is below 3.70; the pIC50 is 5.16 and 4.91. Consider `OC(c1cccnc1)C(F)(F)c1nc2ccccc2o1` (stereo not given), for which the pEC50 is below 3.70 and the pIC50 is below 3.70. Consider `CN(N=O)C(=O)ON1C(=O)CCC1=O`, for which the pEC50 is below 2.91 and the pIC50 is 3.97.
